Assay results reported in patent US7556828B2, “Pharmaceutical composition for treatment of BPH and preparation thereof” (priority 2003, dated 2009).
Marks after values point to notes of the source that are not given here.

Experiments:
[1] = tested on: otic swelling caused by mixed inflammatory solution of croton oil; experiment: Otic swelling caused by mixed inflammatory solution of croton oil; assay type: in vivo, mice; settings: 20 mg/kg once a day for 5 days
Description: 1. Impact on Otic Swelling Caused by Mixed Inflammatory Solution of Croton Oil. […] The treatments were administered to the mice once a day for 5 days. […] Four hours after inflammation, the mice were killed with a disjointed cervical vertebra method. The two ears were cut along the auricle baseline. Equal parts of the two ears (by area) were cut off and weighed on weighing scales to test twisting force. The degree of swelling/inflammation was obtained by subtracting the weight of the right ear from the weight of the left ear. The degrees of swelling between the control (contrast) groups and the test groups were analyzed statistically and the swelling inhibition rate was obtained.

tampon granuloma = experiment: Tampon granuloma of rats; assay type: in vivo; settings: 20 mg/kg once a day for 7 days
Description: Impact on Tampon Granuloma of Rats The same experimental materials and animals as in Experimental Example 2 were used. However, sixty (60) 150-180 g male rats were used. Under ether anesthesia and normal disinfection, two±1 mg sterilized tampons were embedded under the inguinal skins on either side of the bodies. […] The treatments were administered into the rats' stomachs once a day for 7 days. On the eighth day, the rats were killed via a disjointed cervical vertebra method. The tampons were removed and placed in a 60° C. oven for 12 hours and then weighed.

[2] = tested on: prostate hyperplasia caused by testosterone propionate; experiment: Prostate hyperplasia caused by testosterone propionate in rats, comparison of anti-prostate hyperplasia medicaments (Experimental Example 1); assay type: in vivo, Wistar rats; settings: for Prostate Gland Factors, Sum of three lobes (anterior, head and posterior lobes) / Inhibition rate % (Anterior lobe) / Inhibition rate % (Sum of three lobes): 30 days; for Inhibition rate % (Anterior lobe) / Inhibition rate % (Sum of three lobes): vs contrast group; for Prostate Gland Factors, Anterior lobe: once a day for 30 days, castrated rats + testosterone propionate 5 mg/Kg
Description: The effect of anti-prostate hyperplasia medicaments and the composition of the present invention in rats on prostate hyperplasia caused by testosterone propionate was evaluated as discussed below.
• 1. PROSCAR (5-α-reductase inhibitor): tablets, produced by Merck & Co., Inc., (UK) Co., prepared as 0.5 mg/ml medicament. • 2. Saw Palmetto tablets, produced by Zhejiang Conba Pharmaceutical Co. Ltd., prepared with distilled water into […]. • 3. Longbishu Capsules: produced by SHIJIAZHUAN KEDI Pharmaceutical Co., Ltd., prepared with distilled water into 0.18 g/ml medical liquid. • 4. The final extract of Example 9, prepared into […] medical liquid. • 5. Estradiol Benzoate injection • 6. Testosterone propionate injection Test Method and Results
Six 130 g-150 g male Wistar rats were anaesthetized with ether. The testes of each rat were removed under axenic conditions, and the test rats were bred for a week after operation. The rats were divided at random into 6 groups, with 6 rats in each group. All groups of animals were hyped each day with 5 mg/Kg testosterone propionate dissolved in prepared peanut oil. The control (contrast) groups were administered a physiological salt solution. The test groups were administered a treatment of 5 mg/Kg PROSCAR, 5 g/Kg Saw Palmetto, 1.8 g/Kg longbishu, and 6 g/Kg of the final extract obtained in Example 9 The treatment took the form of a1 ml/100 g medicament; for hypodermic injections of 50 μg/Kg estradiol benzoate, the volume was […], administered once a day for 30 days. 24 hours after the final treatment, all the rats were killed. The whole prostate glands were anatomized and placed in formalin. Extraneous fat was cut away from the prostate glands and the liquid on the surface was dried with filter papers. The prostate glands were then weighed with a tissue balance to calculate the weight.

[3] = tested on: testosterone propionate-induced prostate hyperplasia; experiment: Testosterone propionate-induced prostate hyperplasia in rats (Experimental Example 5); assay type: in vivo, Wistar rats
Description: Impact on Testosterone Propionate-Induced Prostate Hyperplasia in Rats
The same experimental materials and animals as in Experimental Example 2 were used. However, fifty (50) 130-150 g male Wistar rats were used. Under ether anesthesia and in sterilized surroundings, both testes of each rat were removed. The rats were then bred for a week after the operation. Next, the rats were randomly divided into 5 groups of 10 rats each. Each group of animals were hyped with 5 mg/kg testosterone propionate dissolved in prepared oil once a day. During the same time period, each group was also given one of the treatments: the control (contrast) group was administered a physiological saline solution; three test groups were administered a dose (1.5, 3 and 6 g/kg) of the extract from Example 9 in a preparation of 1 m/100 g. The positive control (contrast) group was hyped with 50 μg/kg estradiol benzoate in a volume of 0.05 ml/100 g, once a day for 30 days. After the last treatment, the rats were killed and their whole prostate glands were anatomized. The prostate glands were placed in formalin. All the fat was cut away from the prostate glands after they were removed from the formalin. The remaining formalin on the prostate gland surface was dried with filter papers. The prostate glands were then placed in 70% ethanol and fixed for 24 hours. Next, the prostate glands were removed from the ethanol and placed on filter papers. The anterior, head and posterior lobes of the prostate glands were separated and weighed on a weighing scale to test twisting force. The transverse diameter, diameter and height of the anterior lobes of the prostate glands were measured with a two-foot vernier. The volume of the anterior lobe of a prostate gland was obtained by multiplying the values of the three measurements. Finally, the anterior lobes were examined with tectology, and the diameter of the prostate gland cavity and the height of the glandular epithelium cells were measured. Non-pairing t-examinations among the groups were conducted for all indexes. The values of the treatment groups were compared to the control (contrast) groups in order to determine the average difference.

[4] = dose 50 g/Kg (so in the source), hypodermic
[5] = 50 μg/kg once a day for 30 days
[6] = estradiol benzoate 50 μg/kg, 30 days, vs control

CC(=O)OCC(=O)[C@@]1(O)CC[C@H]2[C@@H]3CCC4=CC(=O)CC[C@]4(C)[C@H]3[C@@H](O)C[C@@]21C [Hydrocortisone, Hydrocortisone acetate]
Inhabitation rate % [1]: 46.77% | Swelling degree (mg) (x ± SD) ([1]; 4 hours after croton oil): 9.50 ± 2.93 mg | Inhibition rate % (tampon granuloma): 42.43% | Weight of tampon granuloma (mg x ± SD) (tampon granuloma): 26.45 ± 2.61 mg

CC(C)(C)NC(=O)[C@H]1CC[C@H]2[C@@H]3CC[C@H]4NC(=O)C=C[C@]4(C)[C@H]3CC[C@]12C [PROSCAR]
Prostate Gland Factors, Sum of three lobes (anterior, head and posterior lobes) ([2]; dose 5 mg/Kg): 453.4 ± 59.1 mg/100 g | Inhibition rate % (Anterior lobe) ([2]; dose 5 mg/Kg): 42.3** % | Inhibition rate % (Sum of three lobes) ([2]; dose 5 mg/Kg): 37.1** % | Prostate Gland Factors, Anterior lobe ([2]; dose 5 mg/Kg): 164.2 ± 31.4 mg/100 g

C[C@]12CC[C@@H]3c4ccc(OC(=O)c5ccccc5)cc4CC[C@H]3[C@@H]1CC[C@@H]2O [estradiol benzoate, Estradiol Benzoate]
Prostate Gland Factors, Sum of three lobes (anterior, head and posterior lobes) [2, 4]: 585.3 ± 80.5 mg/100 g | Inhibition rate % (Anterior lobe) [2, 4]: 36.7** % | Inhibition rate % (Sum of three lobes) [2, 4]: 18.8** % | Prostate Gland Factors, Anterior lobe [2, 4]: 180.1 ± 55.8 mg/100 g | Volume of anterior lobe (cm3) [3, 5]: 0.42 ± 0.12 cm3 | rat prostate factors, Anterior lobe [3, 5]: 127.2 ± 23.4 mg/100 g | rat prostate factors, Head lobe [3, 5]: 51.2 ± 10.7 mg/100 g | hyperplasia of the diameter of the glandular cavity of prostate anterior and head lobes (histology) ([3]; 30 days after treatment, microscopic examination): inhibit hyperplasia | inhibition rate for head lobes (weight) [3, 6]: 30.2% | inhibition rate for posterior lobe (weight) [3, 6]: 12.5% | inhibition rate for prostate anterior lobe (weight) [3, 6]: 35.3% | inhibition rate, volume of prostate anterior lobe [3, 6]: 45.5%
